pIC50: −log10 of the molar value. Where a name gives a salt, the structure may show the parent alone. Read-outs that look alike come from different tables or passages of the source.
Experiments:
Chk-1 kinase = Chk-1 kinase (Homo sapiens (Human), UniProt O14757); assay: Chk-1 Kinase Inhibiting Activity (33P-ATP filter assay, CHKtide substrate); assay type: biochemical
How it was run: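 Full-length N-terminal GST-tagged human Chk-1 from insect cells, 0.5 nM final, with 20 μM peptide substrate and 33P-ATP in HEPES pH 7.5 buffer with 1% DMSO. Reaction ran 120 minutes at room temperature; incorporated radioactivity captured on P81 filters and counted for IC50.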

MIA PaCa-2 cells = assay: Gemcitabine Combination Cell Assay (Cell Titer Glo); assay type: cell-based; conditions: for IC50: MIA PaCa-2, 72 h, read-out: Chk1 IC50 (nM); for 10xLS: approximate concentration of Chk1 inhibitor that results in a 10-fold reduction in the IC50 of gemcitabine alone; for 10xLS / 2xLS / pIC50: MIA PaCa-2 cells, 72 h; for 2xLS: approximate concentration of Chk1 inhibitor that results in a two-fold reduction in the IC50 of gemcitabine alone; for pIC50: Chk1 inhibitor alone, read-out: Chk1 IC50
How it was run: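 MIA PaCa-2 cells were treated 72 h with half-log dilutions of Chk1 inhibitor (top 3000 nM) and gemcitabine (top 100 nM), alone and in full matrix; viability by CellTiter-Glo luminescence. IC50s from four-parameter fit; Chk1 inhibitor concentrations giving two- and ten-fold lowering of gemcitabine IC50 were estimated.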

[1] = against Chk-1 kinase, read-out: IC50

Sequence of Chk-1 kinase (O14757 whole entry): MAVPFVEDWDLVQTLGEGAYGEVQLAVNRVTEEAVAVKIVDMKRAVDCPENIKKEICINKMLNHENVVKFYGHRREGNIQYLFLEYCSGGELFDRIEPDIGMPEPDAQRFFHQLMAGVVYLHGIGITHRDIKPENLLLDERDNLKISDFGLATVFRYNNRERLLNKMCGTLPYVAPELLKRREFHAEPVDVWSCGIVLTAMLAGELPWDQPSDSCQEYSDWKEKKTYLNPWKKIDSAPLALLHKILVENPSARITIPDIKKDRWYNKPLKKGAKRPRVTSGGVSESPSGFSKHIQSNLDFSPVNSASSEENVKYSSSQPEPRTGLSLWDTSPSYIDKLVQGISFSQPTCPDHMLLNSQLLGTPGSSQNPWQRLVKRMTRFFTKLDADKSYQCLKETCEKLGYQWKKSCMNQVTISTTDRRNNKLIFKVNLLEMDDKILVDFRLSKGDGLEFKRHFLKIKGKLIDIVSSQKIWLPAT

SMILES | pIC50 (Chk-1 kinase; [1]) | pIC50 (MIA PaCa-2 cells; Homo sapiens) | IC50 (MIA PaCa-2 cells; Homo sapiens) [nM] | 10xLS (MIA PaCa-2 cells) [nM] | 2xLS (MIA PaCa-2 cells) [nM] | pIC50 (Chk-1 kinase) | pIC50 (MIA PaCa-2 cells)
CCN1CCC(c2ccc(-c3cc(Nc4cnc(C#N)cn4)n[nH]3)c(OC)c2)CC1 [Example 60, 5-[[5-[4-(1-ethyl-4-piperidyl)-2-methoxy-phenyl]-1H-pyrazol-3-yl]amino]pyrazine-2-carbonitrile hydrochloride] | 10.00 |  | 329 | 100 | 3 |  | 
COc1cc(N2CCCN(C(C)C)CC2)ccc1-c1cc(Nc2cnc(C#N)cn2)n[nH]1 [Example 84, 5-[[5-[4-(4-isopropyl-1,4-diazepan-1-yl)-2-methoxy-phenyl]-1H-pyrazol-3-yl]amino]pyrazine-2-carbonitrile] | 9.85 | 7.21 |  | <100 | <3 |  | 
COc1cc(C2(F)CCN(C)CC2)ccc1-c1cc(Nc2cnc(C#N)cn2)n[nH]1 [Example 64, 5-[[5-[4-(4-Fluoro-1-methyl-4-piperidyl)-2-methoxy-phenyl]-1H-pyrazol-3-yl]amino]pyrazine-2-carbonitrile hydrochloride] | 9.82 |  | 144 | 100 | 3 |  | 
COc1cc(NC2CCN(C)CC2)ccc1-c1cc(Nc2cnc(C#N)cn2)n[nH]1 [Example 110, 5-[[5-[2-methoxy-4-[(1-methyl-4-piperidyl)amino]phenyl]-1H-pyrazol-3-yl]amino]pyrazine-2-carbonitrile] | 11.16 | 6.72 |  | 100 | 3 |  | 
COc1cc(C2CCN(C)CC2)ccc1-c1cc(Nc2ccc(C#N)cn2)n[nH]1 [Example 25, 6-[[5-[2-methoxy-4-(1-methyl-4-piperidyl)phenyl]-1H-pyrazol-3-yl]amino]pyridine-3-carbonitrile] | 7.85 | < 5.52 |  | >3000 | 300 |  | 
N#Cc1cnc(Nc2cc(-c3ccc(N4CCNCC4)cc3OC(F)(F)F)[nH]n2)cn1 [Example 153] |  | 5.92 |  | 1000 | 100 | 8.42 | 
COc1cc(OC2CCN(C(C)C)CC2)ccc1-c1cc(Nc2cnc(C#N)cn2)n[nH]1 [Example 135, 5-[[5-[4-[(1-isopropyl-4-piperidyl)oxy]-2-methoxy-phenyl]-1H-pyrazol-3-yl]amino]pyrazine-2-carbonitrile] | 10.27 | 6.48 |  | 100 | <3 |  | 
COc1cc(N2CCN(C)CC2)ccc1-c1cc(Nc2cnc(C#N)cn2)n[nH]1 [Example 22, 5-[[5-[2-methoxy-4-(4-methylpiperazin-1-yl)phenyl]-1H-pyrazol-3-yl]amino]pyrazine-2-carbonitrile hydrochloride] | 10.59 |  | 88 | <30 | <3 |  | 
COc1cc(C2CCN(C)CC2)ccc1-c1cc(Nc2ccc(C#N)nc2)n[nH]1.Cl [Example 24, 5-[[5-[2-methoxy-4-(1-methyl-4-piperidyl)phenyl]-1H-pyrazol-3-yl]amino]pyridine-2-carbonitrile hydrochloride] | 9.62 | 6.03 |  | 300 | 10 |  | 
COc1cc(CN(C)CCN2CCOCC2)ccc1-c1cc(Nc2cnc(C#N)cn2)n[nH]1 [Example 15, 5-[[5-[2-methoxy-4-[[methyl(2-morpholinoethyl)amino]methyl]phenyl]-1H-pyrazol-3-yl]amino]pyrazine-2-carbonitrile] | 9.52 | 5.66 |  | ~3000 | ~5 |  | 
CCN1CCC(OCc2ccc(-c3cc(Nc4cnc(C#N)cn4)n[nH]3)c(OC)c2)CC1 [Example 114, 5-[[5-[4-[(1-ethyl-4-piperidyl)oxymethyl]-2-methoxy-phenyl]-1H-pyrazol-3-yl]amino]pyrazine-2-carbonitrile] | 9.70 |  |  | <300 | 3 |  | 6.33
CC(C)Oc1cc(C2CCNCC2)ccc1-c1cc(Nc2cnc(C#N)cn2)n[nH]1 [Example 53, 5-[[5-[2-isopropoxy-4-(4-piperidyl)phenyl]-1H-pyrazol-3-yl]amino]pyrazine-2-carbonitrile] | 8.51 | 5.64 |  | 1000 | 100 |  | 
COc1cc(NCc2ccccc2)ccc1-c1cc(Nc2cnc(C#N)cn2)n[nH]1 [Example 2, 5-[5-(4-benzylamino-2-methoxy-phenyl)-1H-pyrazol-3-ylamino]-pyrazine-2-carbonitrile] | 8.57 | 5.85 |  | 1000 | 100 |  | 
COc1cc(COC2CCN(C)CC2)ccc1-c1cc(Nc2cnc(C#N)cn2)n[nH]1 [Example 113, 5-[[5-[2-methoxy-4-[(1-methyl-4-piperidyl)oxymethyl]phenyl]-1H-pyrazol-3-yl]amino]pyrazine-2-carbonitrile] | 9.57 |  |  | 300 | 3 |  | 6.27

Continued by rising pIC50 (Chk-1 kinase; [1]), values first:

pIC50 (Chk-1 kinase; [1]) | pIC50 (MIA PaCa-2 cells; Homo sapiens) | SMILES | IC50 (MIA PaCa-2 cells; Homo sapiens) [nM] | 10xLS (MIA PaCa-2 cells) [nM] | 2xLS (MIA PaCa-2 cells) [nM] | pIC50 (Chk-1 kinase) | pIC50 (MIA PaCa-2 cells)
8.00 | 5.58 | COc1c(-c2cc(Nc3cnc(C#N)cn3)n[nH]2)ccc(C2CCNCC2)c1Cl [Example 70, 5-[[5-[3-chloro-2-methoxy-4-(4-piperidyl)phenyl]-1H-pyrazol-3-yl]amino]pyrazine-2-carbonitrile] |  | 3000 | 300 |  | 
9.40 | 6.32 | COc1cc(N2CCOCC2)ccc1-c1cc(Nc2cnc(C#N)cn2)n[nH]1 [Example 79, 5-[[5-(2-methoxy-4-morpholino-phenyl)-1H-pyrazol-3-yl]amino]pyrazine-2-carbonitrile] |  | 100 | 3 |  | 
9.48 | 6.39 | COc1cc(CNC2CC2)ccc1-c1cc(Nc2cnc(C#N)cn2)n[nH]1 [Example 91, 5-[[5-[4-[(cyclopropylamino)methyl]-2-methoxy-phenyl]-1H-pyrazol-3-yl]amino]pyrazine-2-carbonitrile] |  | <100 | <3 |  | 
9.72 | 7.44 | CCN1CCN(c2ccc(-c3cc(Nc4cnc(C#N)cn4)n[nH]3)c(OC)c2)CC1 [Example 80, 5-[[5-[4-(4-ethylpiperazin-1-yl)-2-methoxy-phenyl]-1H-pyrazol-3-yl]amino]pyrazine-2-carbonitrile] |  | 10 | <3 |  | 
9.80 | 5.92 | COc1cc([C@@H]2CN(C(C)C)CCO2)ccc1-c1cc(Nc2cnc(C#N)cn2)n[nH]1 [Example 147, 5-[[5-[4-[(2R)-4-isopropylmorpholin-2-yl]-2-methoxy-phenyl]-1H-pyrazol-3-yl]amino]pyrazine-2-carbonitrile] |  | 300 | 10 |  | 
9.82 | 7.44 | COc1cc(N2CCN(C(C)C)CC2)ccc1-c1cc(Nc2cnc(C#N)cn2)n[nH]1 [Example 81, 5-[[5-[4-(4-isopropylpiperazin-1-yl)-2-methoxy-phenyl]-1H-pyrazol-3-yl]amino]pyrazine-2-carbonitrile] |  | <30 | <3 |  | 
9.92 | 6.62 | COc1cc(C2(F)CCN(C(C)C)CC2)ccc1-c1cc(Nc2cnc(C#N)cn2)n[nH]1 [Example 86, 5-[[5-[4-(4-fluoro-1-isopropyl-4-piperidyl)-2-methoxy-phenyl]-1H-pyrazol-3-yl]amino]pyrazine-2-carbonitrile] |  | <100 | <3 |  | 
9.96 | 6.32 | COc1cc(C2(F)CCNCC2)ccc1-c1cc(Nc2cnc(C#N)cn2)n[nH]1 [Example 76, 5-[[5-[4-(4-fluoro-4-piperidyl)-2-methoxy-phenyl]-1H-pyrazol-3-yl]amino]pyrazine-2-carbonitrile] |  | 300 | 10 |  | 
10.00 | 6.60 | COc1cc(C2CCN(C(C)C)CC2)ccc1-c1cc(Nc2cnc(C#N)cn2)n[nH]1 [Example 61, 5-[[5-[4-(1-isopropyl-4-piperidyl)-2-methoxy-phenyl]-1H-pyrazol-3-yl]amino]pyrazine-2-carbonitrile] |  | 100 | 2 |  | 
10.80 | 6.88 | COc1cc(N2CCN(C)[C@H](C)C2)ccc1-c1cc(Nc2cnc(C#N)cn2)n[nH]1 [Example 92, 5-[[5-[4-[(3R)-3,4-dimethylpiperazin-1-yl]-2-methoxy-phenyl]-1H-pyrazol-3-yl]amino]pyrazine-2-carbonitrile] |  | 30 | <3 |  | 
10.92 | 6.36 | COc1cc(CNCC(C)C)ccc1-c1cc(Nc2cnc(C#N)cn2)n[nH]1 [Example 146, 5-[[5-[4-[(isobutylamino)methyl]-2-methoxy-phenyl]-1H-pyrazol-3-yl]amino]pyrazine-2-carbonitrile] |  | 100 | 3 |  | 
11.28 | 6.74 | CCN1CCC(Nc2ccc(-c3cc(Nc4cnc(C#N)cn4)n[nH]3)c(OC)c2)CC1 [Example 111, 5-[[5-[4-[(1-ethyl-4-piperidyl)amino]-2-methoxy-phenyl]-1H-pyrazol-3-yl]amino]pyrazine-2-carbonitrile] |  | 100 | <3 |  | 
